According to publication PMC10226046, “Prodrug Strategies for the Development of β-L-5-((E)-2-Bromovinyl)-1-((2S,4S)-2-(hydroxymethyl)-1,3-(dioxolane-4-yl))uracil (L-BHDU) against Varicella Zoster Virus (VZV)” (Journal of Medicinal Chemistry, 2023):
Read-outs that look alike come from different tables or passages of the source.

Columns and labels:
VZV-ORF57-ΔTKTS = test: microbe, parasite or virus in culture; assay type: cell-based, Varicella zoster virus; settings: Human alphaherpesvirus 3, ARPE-19
VZV-ORF57-Luc [1] = test: microbe, parasite or virus in culture; assay type: cell-based, Varicella zoster virus; settings: Human alphaherpesvirus 3, ARPE-19
VZV-ORF57-ΔTS = test: microbe, parasite or virus in culture; assay type: cell-based, Varicella zoster virus; settings: Human alphaherpesvirus 3, ARPE-19
[2] = Neutral red dye uptake cytotoxicity assay in ARPE-19 cells; settings: human
[3] = Oral pharmacokinetic absorption study in BALB/c mice (plasma, LC-MS/MS); assay type: in vivo; settings: after oral 22.5 mg/kg POM-L-BHDU-MP, LC/MS
Protocol: A pharmacokinetic absorption study was performed in BALB/c mice (Charles River). A single equimolar dose of 22.5 mg/kg POM-L-BHDU-MP or 11.4 mg/kg L-BHDU was dissolved in Cremophor–dimethyl sulfoxide (DMSO)–saline (1:1:8) and administered by oral gavage to two groups of mice with equal numbers of male and female mice (N = 15 each male and female).
Plasma was separated from red blood cells and immediately frozen at −80 °C.
This animal protocol #282 was approved by the IACUC at SUNY Upstate Medical University, which has been fully accredited by AAALAC since 7/31/1999. This method was previously used to evaluate L-BHDU effects on 5-fluorouracil metabolism.[16] Briefly, a single equimolar dose of 22.5 mg/kg POM-L-BHDU-MP or 11.4 mg/kg L-BHDU was dissolved in Cremophor–DMSO–saline (1:1:8) and administered by oral gavage to two groups of BALB/c mice (Charles River) with equal numbers of male and female mice (N = 15 each male and female). Six untreated mice were used for blank controls and were labeled time 0. At 20, 40, 60, and 120 min, three mice from the POM-L-BHDU-MP group and three mice from the L-BHDU group were anesthetized with inhaled isoflurane and then exsanguinated by cardiac puncture. Blood samples were collected into a tube containing heparin. Plasma was separated from red blood cells by centrifugation at 10,000 rpm for 5 min. Plasma was transferred to a new tube and immediately frozen at −80 °C.
Plasma samples were thawed, and exactly 0.95 mL was removed for analysis. The internal standard azidothymidine was added to mouse plasma samples at a final concentration of 20 ng/mL. Proteins were precipitated from the plasma by adding 2× volumes of methanol, then the samples were clarified by centrifugation. The supernatants were dried using an N-EVAP 116 analytical nitrogen evaporator and then reconstituted with 50% methanol in water. LC-MS/MS was used to analyze the concentrations of POM-L-BHDU-MP, L-BHDU, and L-BHDU-MP. Calibration curves were made using BALB/c mouse plasma (Innovative Research, Inc. Novi MI) prior to analyzing the experimental samples.
The primary stock solutions for the calibration were prepared at 0.5 mg/mL for L-BHDU, 1 mg/mL for POM-L-BHDU-MP, and 1 mg/mL for L-BHDU-MP. The primary stock solutions were diluted to working solutions that were in turn used to spike the biological matrix of interest. L-BHDU calibration points were 100.0, 400.0, 800.0, 1000.0, 4000.0, 6000.0, 8000.0, 10,000.0, and 12,000.0 ng/mL. L-BHDU-MP calibration points were 100.0, 200.0, 400.0, 800.0, 1000.0, 2000.0, 4000.0, 6000.0, and 8000.0 ng/mL. The ISTD working solution of AZT was prepared at 20 ng/mL. The standard stock solutions were stored in −80 °C freezer until used. […] The samples were analyzed in a negative ESI mode. […]

VZV-ORF57-Luc [4] = settings: for EC50: cell-free VZV-ORF57-Luc, ARPE-19 cells, 72 hpi, bioluminescence imaging

## CC(C)(C)C(=O)OCOP(=O)(OCOC(=O)C(C)(C)C)OC[C@H]1OC[C@@H](n2cc(/C=C/Br)c(=O)[nH]c2=O)O1 [POM-L-BHDU-MP (41), Bis(POM) Prodrug of L-BHDU-MP]
VZV-ORF57-ΔTKTS
  EC50: > 2000 nM
VZV-ORF57-Luc [1]
  EC50: 51 nM
VZV-ORF57-ΔTS
  EC50: 1.2 nM
[2]
  CC50 at 72 h: > 100000 nM
[3]
  L-BHDU-MP detected in plasma: below the limit of quantitation
VZV-ORF57-Luc [4]
  SI (CC50/EC50): >2809
  EC50: 35.6 nM
VZV-ORF57-Luc [4]; listed as POM-L-BHDU-MP
  EC50: 36 nM
VZV-ORF57-Luc [4]; selectivity index = CC50/EC50, ARPE-19 cells
  SI (CC50/EC50): >2809
VZV-ORF57-Luc [4]; selectivity index = CC50/EC50, ARPE-19 cells, listed as POM-L-BHDU-MP
  SI (CC50/EC50): > 2809
